# Experimental data taken from patent publication US8048862B2, “Macrocyclic inhibitors of hepatitis C virus replication” (priority 2008, dated 2011).
# Assays:
# [1] = tested on: hepatitis C virus (HCV RNA levels), chronic hepatitis C genotype 1; experiment: ITMN-191 combination therapy with SOC (PEG-IFN alfa-2a and ribavirin), 14 days, effect on HCV viral load in patients; assay type: in vivo; details: for HCV RNA (<43 IU/mL) (%): after 14 days of treatment; for median change in HCV RNA from baseline: 14 days of triple combination therapy
# From the text: This is a double-blind, placebo-controlled, multicenter study in treatment-naïve patients with chronic hepatitis C genotype 1 infection. All patients receive standard of care (SOC) treatment with PEG-IFN alfa-2a and weight-based ribavirin in accordance with the product labeling. In addition to this standard of care treatment, patients are randomized to receive either ITMN-191 or matching placebo, administered in the fed state, for 14 complete days, and a single dose on Day 15. PEG-IFN alfa-2a and ribavirin is provided from Day 0 and following the completion of study drug treatment on Day 15 through Day 44. No other HCV therapies are permitted prior to Day 44. All patients receive SOC and then are administered a pill containing either ITMN-191 or placebo. The ITMN-191 was administered in the form of its sodium salt.
# Patients are admitted to a research facility and initiate PEG-IFN alfa-2a and ribavirin on Day O, Study drug (ITMN-191 or placebo) administration begins on Day 1 and continues to the morning of Day 15, and patients are discharged from the research facility on Day 16. Meals and activity levels are standardized across research facilities. Patients are contacted by telephone on Day 21 and return to the research facility for the Safety Follow-up Visit on Day 28 and the End of Study Visit on Day 44.
# Over the course of the study, blood samples are obtained for clinical laboratory analysis and for PK (pharmokinetics) and VK (viral kinetics). In addition, blood samples to assess VR (viral rebound) are obtained. To monitor potential cardiac toxicity, cardiac troponin are assessed every day during the treatment period.
# End of treatment (EOT) and nadir HCV RNA levels were used to define virologic rebound, continual decline, and plateau response patterns. NS3 protease domain was amplified and population sequenced by nested reverse transcription polymerase chain reaction (RT-PCR). Amplicons were cloned into a novel NS3 phenotyping vector and this plasmid used for clonal sequencing. The HCV RNA levels were determined by Roche COBAS Taqman HCV/HPS test, v2.0. This is a reverse transcriptase PCR method.
# [2] = tested on: hepatitis C virus (HCV RNA levels), chronic hepatitis C genotype 1; experiment: ITMN-191 monotherapy, 14 days, effect on HCV viral load in patients; assay type: in vivo; details: for median reduction in HCV RNA levels at end of treatment (EOT) (Day 14): sodium salt oral
# Procedure: The study was designed to provide the plasma pharmacokinetics (PK) of multiple ascending daily oral doses of ITMN-191 monotherapy and to evaluate the viral kinetics (VK) of multiple ascending daily oral doses of ITMN-191 monotherapy in patients, as measured by changes from Baseline in hepatitis C virus ribonucleic acid (HCV RNA) levels. The ITMN-191 was administered in the form of its sodium salt.
# In Part A and Part B, up to six cohorts (treatment arms) of 10 patients each were planned. In Part A, up to five cohorts of 10 treatment-naïve patients per cohort were planned to receive multiple ascending doses of study drug. Patients within each of the five cohorts were randomly assigned 8:2 to receive either ITMN-191 or placebo for 14 days. In Part B, one cohort of non-responder (NR) patients (Cohort 6) was planned to receive a single dose level of study drug for 14 days. Patients in Cohort 6 were randomly assigned 8:2 to receive either ITMN-191 (8 patients) or placebo (2 patients).
# The treatment period consisted of 14 days of blinded study drug. In Part A, optional Standard of Care (SOC) consisting of PEG-IFN-α plus ribivarin (RBV) therapy was provided to treatment-naïve patients 24 hours after the last dose on Day 14. In Part B, NR patients were not permitted to start any additional HCV therapy before Day 44.
# Efficacy was evaluated by log10 reductions in HCV RNA levels and reductions in ALT values using the Efficacy-Evaluable Population, defined as those patients who received at least 90% of prescribed doses of assigned blinded study drug. Three patients in the treatment-naive 200 mg q12h cohort received less than the assigned randomized dose and were excluded from all efficacy analyses. The HCV RNA levels were determined by Roche COBAS Taqman HCV/HPS test, v2.0. This is a reverse transcriptase PCR method.
# In Parts A and B, rebound, plateau, and continuous decline of virologic response profiles were defined based on the HCV RNA level at end of treatment (EOT) relative to the nadir HCV RNA level. […] The frequency of rebound for treatment-naïve patients (Part A) was higher in the 100 mg […] treatment arm (4 patients) than in the higher dose treatment arms (2 to 3 patients). The frequency of rebound for NR patients (Part B) was the same (2 patients) as for the treatment-naïve patients in the 100 mg q8h treatment arm. However, there were no statistically significant differences in ITMN-191 AUC, Cmax, or Cτ between rebound, plateau, and continual decline groups. At EOT, every patient classified as experiencing virologic rebound carried NS3 variants in which arginine at amino acid position 155 was replaced, at least in part, by lysine.
# [3] = any combination therapy cohort, 14 days
# [4] = NR (nonresponder) patients, 300 mg q8h, 14 days
# [5] = all ITMN-191 treated patients, Parts A and B, monotherapy 14 days
# [6] = treatment-naïve patients, 200 mg q8h, 14 days
# [7] = treatment-naïve patients, 200 mg q12h, 14 days
compound,measurement,setting,value
CC(C)(C)OC(=O)N[C@H]1CCCCC/C=C\[C@@H]2C[C@@]2(C(=O)NS(=O)(=O)C2CC2)NC(=O)[C@@H]2C[C@@H](OC(=O)N3Cc4cccc(F)c4C3)CN2C1=O [ITMN-191],HCV RNA (<43 IU/mL) (%),[1]; 100 mg q8h (300 mg) and SOC,75%
same,Median Change Log10 (IU/mL) HCV RNA at EOT,"[1]; 100 mg q8h (300 mg) in combination with SOC, 14 days",−5.5 Log10 (IU/mL)
same,HCV RNA (<43 IU/mL) (%),[1]; 200 mg q8h (600 mg) and SOC,88%
same,Median Change Log10 (IU/mL) HCV RNA at EOT,"[1]; 200 mg q8h (600 mg) in combination with SOC, 14 days",−5.7 Log10 (IU/mL)
same,Median Change Log10 (IU/mL) HCV RNA at EOT,"[1]; 300 mg q8h (900 mg) in combination with SOC, 14 days",−5.6 Log10 (IU/mL)
same,Median Change Log10 (IU/mL) HCV RNA at EOT,"[1]; 400 mg q12h (800 mg) in combination with SOC, 14 days",−4.7 Log10 (IU/mL)
same,Median Change Log10 (IU/mL) HCV RNA at EOT,"[1]; 600 mg q12h (1200 mg) in combination with SOC, 14 days",−5.4 Log10 (IU/mL)
same,Median Change Log10 (IU/mL) HCV RNA at EOT,"[1]; 900 mg q12h (1800 mg) in combination with SOC, 14 days",−5.5 Log10 (IU/mL)
same,patients with HCV RNA below the limit of quantification (<25 IU/mL),"[1]; all doses and intervals (32 of 45 patients), combination with SOC, 14 days",71%
same,patients with HCV RNA levels below 9.3 IU/mL,[1]; [3],at least 13%
same,patients with HCV RNA levels below 25 IU/mL,[1]; [3],at least 57%
same,median change in HCV RNA from baseline,[1]; best performing q8h cohort,−5.7 log
same,median change in HCV RNA from baseline,[1]; best performing q12h cohort,−5.5 log
same,median change in HCV RNA from baseline,[1]; five of the six cohorts,exceeded 5 logs
same,median ALT decline from Baseline at EOT,[2]; [4],−34.5 U/L
same,median maximum reduction in HCV RNA levels,[2]; [4],−2.93 log10 IU/mL
same,median reduction in HCV RNA at EOT,[2]; [4],−2.46 log10 IU/mL
same,frequency of rebound,[2]; NR patients (Part B),2 patients
same,patients experiencing continual decline in HCV RNA level,[2]; [5],14/40
same,patients experiencing plateau,[2]; [5],12/40
same,median maximum post-Baseline change in HCV RNA,"[2]; single NR cohort (Part B), 300 mg q12h dose as printed in the conclusions",−2.93 log10 IU/mL
same,frequency of rebound,"[2]; treatment-naïve patients, 100 mg q2h treatment arm",4 patients
same,frequency of rebound,"[2]; treatment-naïve patients, 100 mg q8h treatment arm",2 patients
same,median EOT reduction of ALT,[2]; [6],−37.5 U/L
same,median maximum reduction in HCV RNA levels,[2]; [6],−3.90 log10 IU/mL
same,median reduction in HCV RNA levels at end of treatment (EOT) (Day 14),[2]; [6],−3.76 log10 IU/mL
same,median maximum reduction in HCV RNA levels,[2]; [7],−3.17 log10 IU/mL
same,median reduction in HCV RNA levels at end of treatment (EOT) (Day 14),[2]; [7],−3.12 log10 IU/mL
